Reference: patent EP3363436A1, “AGENT FOR TREATING PARASITIC WORM DISEASES” (Haas, Helmut, priority 2017, dated 2018)

Test system: S. mansoni
Experiment: Drug testing on schistosomes in vitro (incubation of cultured worms with the substance, morphological assessment)
Type: cell-based
Text: Mirazidien für die Infektion von Wasserschnecken (Biomphalaria glabrata, Stamm Puerto Rico) wurden mittels Standardverfahren aus Gewebe (Leber, Darm) von Syrischen Goldhamstern bzw. Mäusen gewonnen, die mit S. mansoni (Liberian strain bzw. Brasilian strain) infiziert worden waren. Hierzu wurde das Gewebe (freundlicherweise zur Verfügung gestellt von Prof. Dr. Grevelding, Universität Gießen bzw. von Dr. Sombetzki, Universität Rostock) mechanisch zerkleinert und die darin enthaltenen Wurmeier mittels Enzymverdau aus dem Gewebeverband herausgelöst. Nach Zugabe von H2O zu dem Gewebspräzipitat schlüpfen aus den Eiern die Mirazidien. Die Infektion erfolgte separat für jede Schnecke mit 4-7 Mirazidien. Da Licht für die Zerkarien der Schlüsselreiz zum Verlassen der Schnecke ist, wurden die Schnecken in der vierten Woche nach Infektion dunkel gestellt, um ein vorzeitiges Ausschwärmen von Zerkarien zu unterbinden.
6-7 Wochen nach Infektion wurden die infizierten Schnecken aus Beispiel 1 in Wasser mittels einer 60-Watt Glühlampe von oben belichtet, da ab diesem Zeitpunkt Zerkarien die infizierten Schnecken in ausreichender Menge verlassen. Während einer Belichtungsdauer von 2-3 Stunden wurden die aufschwimmenden Zerkarien gesammelt. Nach wiederholtem Waschen und Überführen in Medium erfolgte die Transformation der Zerkarien mechanisch nach Standardverfahren. Dazu erfolgten wiederholte Passagen durch eine Emulsionsnadel, an die zwei Spritzen angeschlossen sind. Die durch die Transformation aus den Zerkarien (Gabelschwanzlarven) entstandenen Schistosomula wurden ebenfalls wiederholt in Medium gewaschen und dabei von den abgescherten Schwänzen getrennt.
Die transformierten Schistosomula wurden nach dem von Basch beschriebenen Verfahren kultiviert (Basch (1981), J Parasitol.; 67: 179-185), wobei das Verfahren leicht modifiziert wurde, wie es bei Reimers beschrieben wurde (Reimers et al. (2015), PLoS Negl Trop Dis 9(3): e0003593). […]

SMILES | Abtöten von Schistosomen (in vitro, Schistosomula, juvenile and adult worms, initially 10 µM (Figures 1-2: 10, 20, 40 µM), 24 h exposure then wash-out, assessed at 4 h, 24 h, 48 h, 72 h and 7 days) | morphologische Veränderungen und Schädigung der Würmer (incubation of parasitic worms with Felodipin in vitro) | Verstärkung der Wirkung von Felodipin (Loperamid given together with Felodipin, in vitro)
CCOC(=O)C1=C(C)NC(C)=C(C(=O)OC)C1c1cccc(Cl)c1Cl (racemic) [Felodipin] | hochwirksam Schistosomen abtöten | erheblichen morphologischen Veränderungen und irreversiblen Schädigung der Würmer | 
CN(C)C(=O)C(CCN1CCC(O)(c2ccc(Cl)cc2)CC1)(c1ccccc1)c1ccccc1 [Loperamid, 4-[4-(4-Chlorphenyl)-4-hydroxypiperidin-1-yl]-N,N-dimethyl-2,2-diphenylbutyramid] |  |  | verstärkt Loperamid die Wirkung von Felodipin signifikant
